Results: US9017744B2, “Method of using isomaltulose to suppress blood glucose level increase” (Mitsui Sugar Co., Ltd., priority 2002, dated 2015)

Key:
[1] = Blood glucose level test after ingesting drinks (Example 1); assay type: in vivo, human; conditions: for blood glucose level increase: FIG. 1
Method: Using each of the Comparative drinks as a control sample, a blood glucose level test after ingesting the drink was performed as will be described later. […] Using each of the Example drinks as a test sample, a blood glucose level test after ingesting the drink was performed. The blood glucose level test was as follows: Five healthy volunteers (4 males and 1 female), 31-40 aged, were selected as the test subjects. They took no breakfast on a test day and kept fasting for 12 hrs or more before the start of the test. Their bloods were collected before ingesting a drink (0 min), and 30 min, 60 min, 90 min, and 120 min after ingesting it. As a result their blood glucose levels are determined. One kind of drink was ingested for one test. Another drink was ingested on another day and the test was carried out once a day for total 8 days. The same five test subjects were applied to all the tests for blood glucose levels. In the Example 1, the free style Kissei kit (made by Kissei Pharmaceutical Co., LTD) was used to collect blood samples and test a blood glucose level.

[2] = Body fat accumulation in mice fed feeds for 8 weeks (Example 3); assay type: in vivo, C57BL/6CrSlc(SPF) male mice
Source text: Mice were consecutively fed with a feed added with isomaltulose, a feed added with sucrose and no isomaltulose, and a feed added with both isomaltulose and sucrose to compare their body fat accumulation amount.
C57BL/6CrSlc(SPF) male mice (30 heads) aged 7 weeks were fed with a commercial powder feed (trade name: CRF-1 powder, made by Oriental Yeast Co., LTD) and water ad libitum to prefeed for a week. […] The groups were fed with their respective feeds and water ad libitum for 8 weeks. The feeding condition was as follows: temperature 22±3° C., humidity (relative humidity) 50±20%, ventilation cycles 13-17 times/hr, and lighting time 8:00-20:00 (light 12 hrs, dark 12 hrs).
After the end of the feeding, the mice were light anesthetized with ether and sectioned abdominally to exsanguinate from postcava to death. For a typical example of every group, digital photographs showing body fat accumulation inside the abdominal cavity were taken. Then, for all the cases, the kidney peripheral fat (including the retroperitoneal fat) and the epididymis peripheral fat were taken out to measure their wet weights separately in left and right. The mesenteric fat also was taken out to measure its wet weight. These three kinds of fat tissues are typical of visceral fat. […]

[3] = Heat coloring of carbohydrate with glutamic acid (Test Example 1); assay type: physicochemical; conditions: for absorbance at a wavelength of 420 nm: 5 g carbohydrate + 1 g glutamic acid in 50 g
Method: 5 g of carbohydrate and 1 g of glutamic acid were dissolved in distilled water to prepare a sample having a total weight of 50 g. […] These samples were filled in 100 ml capped vials and then heated at 100° C. for 50 min. After the heating, samples were cooled and respective absorbances were measured at a wavelength of 420 nm.
Three same kinds of samples were prepared and treated in an autoclave at 121° C. for 20 min, that is, the same level as in retort sterilization for a canned food, and measured the absorbance at a wavelength of 420 nm.

[4] = Crystallization of 50 wt % solutions stored at 5° C. (Test Example 2); assay type: physicochemical
Method: Dissolution was performed until no crystal remained at 50° C. These vials were put in a refrigerator set at 5° C. to observe crystallization.

[5] = monohydrate; at 20° C.; cited from earlier work
[6] = rats; high fat diet, all sucrose replaced by isomaltulose, compared with sucrose-containing feed; cited from earlier work
[7] = autoclave at 121° C. for 20 min

SMILES	increase in blood glucose level after consuming the carbohydrates ([1]; 25 g isomaltulose in combination with 25 g sucrose or 25 g glucose)	area under blood glucose level increase curve ([1]; 25 g isomaltulose in combination with 25 g sucrose or 25 g glucose, compared with the Comparative groups)	minimum intake of isomaltulose necessary to reduce an increase in blood glucose level ([1]; in vivo) [g]	blood glucose level increase ([1]; simultaneous ingestion of 25 g isomaltulose and 25 g glucose, compared with 25 g glucose alone)	blood glucose level increase ([1]; simultaneous ingestion of 25 g isomaltulose and 25 g sucrose, compared with 50 g sucrose alone and 25 g sucrose alone)	isomaltulose ratio in total carbohydrate at which the GI value surely decreased ([1]; total carbohydrate weight 50 g, FIG. 4) [%]	ratio of isomaltulose in carbohydrate at which it reduces the accumulation of body fat ([2]; mouse, in vivo) [%]	minimum intake of isomaltulose necessary to reduce a body fat accumulation ([2]; presumed, in terms of a person having a body weight of 60 kg) [g]	absorbance at a wavelength of 420 nm [3, 7]	absorbance at a wavelength of 420 nm ([3]; heated at 100° C. for 50 min)	visual colour of sample [3, 7]	storage time at which crystallization began ([4]; 50 wt % solution, 100 ml) [days]	amount of crystal ([4]; 50 wt % solution, 100 ml, after 6 days) [g]	solubility [5] [g in 100 g water]	body fat accumulation amount [6]	blood glucose level 30 minutes after ingesting ([1]; 25 g ingested alone (Comparative example))	blood glucose level 30 minutes after ingesting ([1]; 50 g ingested alone (Comparative example))	crystallization observed ([4]; 50 wt % total sugar solution, during 6 days)
OC[C@H]1O[C@H](OC[C@H]2OC(O)(CO)[C@@H](O)[C@@H]2O)[C@H](O)[C@@H](O)[C@@H]1O (stereo partly drawn) [isomaltulose, 6-O-alpha-D-Glucopyranosyl-D-fructofuranose]	no sudden increases	significantly lower values	≥ 5	reduced	reduced	≥ 10	≥ 20	≥ 10	0.322	0.004	clearly deep brown	2	10.77	38.4	lower body fat accumulation amount			
OC[C@H]1O[C@@](CO)(O[C@H]2O[C@H](CO)[C@@H](O)[C@H](O)[C@H]2O)[C@@H](O)[C@@H]1O [sucrose, reference compound]											clearly light brown					sudden increase	sudden increase	no crystallization
